According to patent EP4745137A1 (Gluetacs Therapeutics (Shanghai) Co., Ltd., priority 2023, dated 2025):

How the values were obtained:
[1] = biological target: T1, WEE1 (Homo sapiens, UniProt P30291+Q96SW2); assay: Western-blot assay of substrate protein degradation in hPBMCs, WEE1; format: cell-based; conditions: 24 hours of compound treatment, compounds tested at 50 nM and 500 nM (concentration of the table not stated)
T1 construct: endogenous in cells; host or cells: hPBMCs (Milecell Biotechnologies)
T1 sequence (P30291 whole entry): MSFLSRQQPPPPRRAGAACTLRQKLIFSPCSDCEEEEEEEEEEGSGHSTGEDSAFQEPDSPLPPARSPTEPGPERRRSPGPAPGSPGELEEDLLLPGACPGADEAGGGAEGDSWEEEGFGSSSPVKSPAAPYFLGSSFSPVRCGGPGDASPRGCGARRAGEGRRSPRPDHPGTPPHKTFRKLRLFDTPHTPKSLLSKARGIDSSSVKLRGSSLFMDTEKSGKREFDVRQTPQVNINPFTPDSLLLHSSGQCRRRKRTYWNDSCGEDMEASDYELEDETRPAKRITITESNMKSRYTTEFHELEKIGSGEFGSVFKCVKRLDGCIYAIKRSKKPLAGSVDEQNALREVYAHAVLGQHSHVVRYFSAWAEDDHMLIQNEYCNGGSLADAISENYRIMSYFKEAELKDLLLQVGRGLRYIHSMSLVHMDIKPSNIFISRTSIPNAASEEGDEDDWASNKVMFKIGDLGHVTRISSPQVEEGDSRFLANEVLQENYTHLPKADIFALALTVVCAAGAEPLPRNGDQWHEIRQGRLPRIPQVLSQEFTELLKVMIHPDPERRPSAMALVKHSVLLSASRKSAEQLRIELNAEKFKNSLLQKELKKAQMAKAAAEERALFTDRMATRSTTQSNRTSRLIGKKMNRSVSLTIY
T1 sequence (Q96SW2 whole entry): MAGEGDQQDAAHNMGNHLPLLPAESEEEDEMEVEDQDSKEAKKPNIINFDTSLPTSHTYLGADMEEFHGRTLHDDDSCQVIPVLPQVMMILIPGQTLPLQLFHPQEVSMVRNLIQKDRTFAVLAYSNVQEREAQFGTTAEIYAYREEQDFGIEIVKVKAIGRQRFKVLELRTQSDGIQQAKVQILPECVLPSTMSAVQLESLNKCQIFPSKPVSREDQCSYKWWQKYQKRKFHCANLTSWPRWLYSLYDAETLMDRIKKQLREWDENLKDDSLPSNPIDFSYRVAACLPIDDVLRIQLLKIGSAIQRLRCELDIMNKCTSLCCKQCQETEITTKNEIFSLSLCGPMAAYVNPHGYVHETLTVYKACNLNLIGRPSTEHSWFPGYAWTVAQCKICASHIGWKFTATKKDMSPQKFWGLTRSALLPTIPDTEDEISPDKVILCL
T1 sequence (Q16531 whole entry partner): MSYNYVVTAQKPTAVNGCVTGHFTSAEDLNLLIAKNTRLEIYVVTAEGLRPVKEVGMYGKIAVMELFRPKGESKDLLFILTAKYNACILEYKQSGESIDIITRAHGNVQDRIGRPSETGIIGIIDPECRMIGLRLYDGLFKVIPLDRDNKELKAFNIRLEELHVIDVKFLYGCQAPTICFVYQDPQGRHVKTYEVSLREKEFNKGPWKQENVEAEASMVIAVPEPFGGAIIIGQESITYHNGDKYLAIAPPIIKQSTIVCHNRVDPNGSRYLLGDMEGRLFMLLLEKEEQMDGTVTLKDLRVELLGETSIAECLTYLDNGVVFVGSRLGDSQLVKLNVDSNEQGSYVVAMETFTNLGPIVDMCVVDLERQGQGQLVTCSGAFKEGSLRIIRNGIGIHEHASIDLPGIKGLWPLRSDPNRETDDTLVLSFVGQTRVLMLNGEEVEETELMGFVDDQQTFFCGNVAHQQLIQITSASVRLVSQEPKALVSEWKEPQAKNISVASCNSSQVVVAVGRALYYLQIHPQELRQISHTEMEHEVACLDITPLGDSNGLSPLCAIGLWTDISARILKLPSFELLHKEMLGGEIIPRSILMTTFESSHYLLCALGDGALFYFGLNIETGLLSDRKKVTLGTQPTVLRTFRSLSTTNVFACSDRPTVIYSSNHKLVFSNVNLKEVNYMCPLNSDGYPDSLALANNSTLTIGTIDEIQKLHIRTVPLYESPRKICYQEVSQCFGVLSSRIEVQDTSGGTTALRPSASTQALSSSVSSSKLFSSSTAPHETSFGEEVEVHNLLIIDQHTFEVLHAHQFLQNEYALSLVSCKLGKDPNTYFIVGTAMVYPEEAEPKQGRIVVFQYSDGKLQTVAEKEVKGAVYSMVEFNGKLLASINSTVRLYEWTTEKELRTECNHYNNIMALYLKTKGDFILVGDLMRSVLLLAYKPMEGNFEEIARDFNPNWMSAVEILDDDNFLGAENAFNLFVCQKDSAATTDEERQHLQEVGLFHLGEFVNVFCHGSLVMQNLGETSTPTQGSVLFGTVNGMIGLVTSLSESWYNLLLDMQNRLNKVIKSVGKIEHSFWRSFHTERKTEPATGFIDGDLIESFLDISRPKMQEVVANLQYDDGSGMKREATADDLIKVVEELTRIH

[2] = biological target: T2, IKZF2 (Homo sapiens, UniProt Q96SW2+Q9UKS7); assay: Western-blot assay of substrate protein degradation in hPBMCs, IKZF2; format: cell-based; conditions: 24 hours of compound treatment, compounds tested at 50 nM and 500 nM (concentration of the table not stated)
T2 construct: endogenous in cells; host or cells: hPBMCs (Milecell Biotechnologies)

[3] = test system: SW620; assay: Tumor cell proliferation inhibition (CellTiter-Meiluncell Luminescent Cell Viability Assay), SW620; conditions: Homo sapiens, SW-620, 96 h, read-out: inhibitory activity (IC50, nM) against tumor cells proliferation, SW620
[4] = test system: CCRF-CEM; assay: Tumor cell proliferation inhibition (CellTiter-Meiluncell Luminescent Cell Viability Assay), CCRF-CEM; conditions: Homo sapiens, 96 h, read-out: inhibitory activity (IC50, nM) against tumor cells proliferation, CCRF-CEM
Method: (§1) The tumor cells used herein were cultured in a cell culture medium listed in table 2 at 37°C in an incubator with 5% CO2. Prior to experimentation, all cell lines used were correctly identified by STR profiling, and tested negative for mycoplasma contamination using a mycoplasma detection kit through routine screenings.
(§2) On the following day, the test compounds of the present disclosure were subjected to serial dilution. […] Subsequently, 0.5 µL of the test compound dilution was transferred into the 96-well plate containing the cells, with each well containing 100 µL of cell culture medium. […] Into the 96-well plate, the diluted test compounds and corresponding detection reagents were added, resulting in final test compound concentrations of 500 nM and 10 nM, respectively. The experimental procedure is described below using the diluted 2 µM test compound as an example.
(§3) After the cells were treated with the compounds of the present disclosure for a specified period (the treatment durations were shown in Table 3), the cell viability assay reagent was added to the culture medium according to the kit's instructions to determine cell viability. […] All controls were treated using the same procedure as the compounds of the present disclosure. The growth inhibition curves for the compounds of the present disclosure were plotted using Prism GraphPad software, and the IC50 values were calculated therefrom.

[5] = test system: NCI-H1975; assay: Tumor cell proliferation inhibition (CellTiter-Meiluncell Luminescent Cell Viability Assay), NCI-H1975; conditions: Homo sapiens, NCI-H1975, 96 h, read-out: inhibitory activity (IC50, nM) against tumor cells proliferation, H1975
[6] = biological target: T3, IKZF3 (Homo sapiens, UniProt Q96SW2+Q9UKT9); assay: Western-blot assay of substrate protein degradation in hPBMCs, IKZF3; format: cell-based; conditions: 24 hours of compound treatment, compounds tested at 50 nM and 500 nM (concentration of the table not stated)
T3 construct: endogenous in cells; host or cells: hPBMCs (Milecell Biotechnologies)
T3 sequence (Q9UKT9 whole entry): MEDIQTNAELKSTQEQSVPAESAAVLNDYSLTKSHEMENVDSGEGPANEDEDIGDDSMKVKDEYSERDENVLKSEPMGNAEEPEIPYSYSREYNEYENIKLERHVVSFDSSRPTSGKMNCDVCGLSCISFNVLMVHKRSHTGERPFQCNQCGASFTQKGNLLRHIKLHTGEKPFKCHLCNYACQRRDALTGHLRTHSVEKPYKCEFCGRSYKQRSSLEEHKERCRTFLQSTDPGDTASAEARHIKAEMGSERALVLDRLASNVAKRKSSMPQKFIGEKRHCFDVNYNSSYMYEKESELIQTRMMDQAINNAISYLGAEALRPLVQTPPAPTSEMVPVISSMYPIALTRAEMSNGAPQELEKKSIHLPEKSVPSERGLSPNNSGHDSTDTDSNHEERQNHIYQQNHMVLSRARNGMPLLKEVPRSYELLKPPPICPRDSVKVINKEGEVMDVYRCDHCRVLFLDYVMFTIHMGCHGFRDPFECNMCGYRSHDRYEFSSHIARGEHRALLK
T3 sequence (Q96SW2 whole entry): as the sequence (Q96SW2 whole entry) above
T3 sequence (Q16531 whole entry partner): as the sequence (Q16531 whole entry partner) above

[7] = test system: Vcap; assay: Tumor cell proliferation inhibition (CellTiter-Meiluncell Luminescent Cell Viability Assay), Vcap; conditions: Homo sapiens, 96 h, read-out: inhibitory activity (IC50, nM) against tumor cells proliferation, Vcap
Method: as §1, §2, §3

[8] = biological target: T4, IKZF1 (Homo sapiens, UniProt Q13422+Q96SW2); assay: Western-blot assay of substrate protein degradation in hPBMCs, IKZF1; format: cell-based; conditions: 24 hours of compound treatment, compounds tested at 50 nM and 500 nM (concentration of the table not stated)
T4 construct: endogenous in cells; host or cells: hPBMCs (Milecell Biotechnologies)
T4 sequence (Q13422 whole entry): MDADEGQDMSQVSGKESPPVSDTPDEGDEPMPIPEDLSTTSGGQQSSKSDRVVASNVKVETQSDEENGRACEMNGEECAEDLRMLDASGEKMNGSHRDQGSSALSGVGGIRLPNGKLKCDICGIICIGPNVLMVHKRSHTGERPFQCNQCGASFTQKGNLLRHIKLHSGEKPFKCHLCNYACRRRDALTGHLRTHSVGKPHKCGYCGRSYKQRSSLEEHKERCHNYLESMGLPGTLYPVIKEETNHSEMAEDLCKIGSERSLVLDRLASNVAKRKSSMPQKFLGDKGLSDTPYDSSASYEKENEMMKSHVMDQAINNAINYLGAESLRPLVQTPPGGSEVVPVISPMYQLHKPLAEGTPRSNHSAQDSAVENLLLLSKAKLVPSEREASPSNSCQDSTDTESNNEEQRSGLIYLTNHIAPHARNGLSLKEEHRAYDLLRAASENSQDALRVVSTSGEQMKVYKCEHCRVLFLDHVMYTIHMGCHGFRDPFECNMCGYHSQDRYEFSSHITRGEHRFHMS
T4 sequence (Q96SW2 whole entry): as the sequence (Q96SW2 whole entry) above
T4 sequence (Q16531 whole entry partner): as the sequence (Q16531 whole entry partner) above

[9] = biological target: T5, CK1α (Homo sapiens, UniProt P48729+Q96SW2); assay: Western-blot assay of substrate protein degradation in hPBMCs, CK1α; format: cell-based; conditions: 24 hours of compound treatment, compounds tested at 50 nM and 500 nM (concentration of the table not stated)
T5 construct: endogenous in cells; host or cells: hPBMCs (Milecell Biotechnologies)
T5 sequence (P48729 whole entry): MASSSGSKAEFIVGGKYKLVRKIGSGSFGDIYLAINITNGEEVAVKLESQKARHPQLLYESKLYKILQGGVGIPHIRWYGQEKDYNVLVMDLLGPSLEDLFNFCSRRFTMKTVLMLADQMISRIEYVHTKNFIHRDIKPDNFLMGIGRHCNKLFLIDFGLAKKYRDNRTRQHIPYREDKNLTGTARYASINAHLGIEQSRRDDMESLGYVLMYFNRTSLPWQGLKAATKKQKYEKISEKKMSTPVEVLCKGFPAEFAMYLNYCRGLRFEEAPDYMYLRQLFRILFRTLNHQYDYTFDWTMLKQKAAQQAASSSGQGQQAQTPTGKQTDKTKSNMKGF
T5 sequence (Q96SW2 whole entry): as the sequence (Q96SW2 whole entry) above
T5 sequence (Q16531 whole entry partner): as the sequence (Q16531 whole entry partner) above

[10] = test system: Jurkat; assay: Tumor cell proliferation inhibition (CellTiter-Meiluncell Luminescent Cell Viability Assay), Jurkat; conditions: Homo sapiens, 96 h, read-out: inhibitory activity (IC50, nM) against tumor cells proliferation, Jurkat
[11] = test system: Human acute T lymphocytic leukemia cells (Molt-4); assay: Tumor cell proliferation inhibition (CellTiter-Meiluncell Luminescent Cell Viability Assay), Molt-4; conditions: MOLT-4, 96 h, read-out: inhibitory activity (IC50, nM) against tumor cells proliferation, Molt 4
[12] = test system: SR; assay: Tumor cell proliferation inhibition (CellTiter-Meiluncell Luminescent Cell Viability Assay), SR; conditions: Homo sapiens, 96 h, read-out: inhibitory activity (IC50, nM) against tumor cells proliferation, SR
Method: as §1
(§4) On the following day, the test compounds of the present disclosure were subjected to serial dilution. […] Subsequently, 0.5 µL of the test compound dilution was transferred into the 96-well plate containing the cells, with each well containing 100 µL of cell culture medium. […] Into the 96-well plate, the diluted test compounds and corresponding detection reagents were added, resulting in final test compound concentrations of 500 nM and 10 nM, respectively.
as §3

[13] = test system: MGC803; assay: Tumor cell proliferation inhibition (CellTiter-Meiluncell Luminescent Cell Viability Assay), MGC803; conditions: Homo sapiens, MGC-803, 96 h, read-out: inhibitory activity (IC50, nM) against tumor cells proliferation, MGC803
Method: as §1, §4, §3

[14] = test system: Human breast cancer cells (MDA-MB-231); assay: Tumor cell proliferation inhibition (CellTiter-Meiluncell Luminescent Cell Viability Assay), MDA-MB-231; conditions: MDA-MB-231, 96 h, read-out: inhibitory activity (IC50, nM) against tumor cells proliferation, MDA-MB-231
Method: as §1, §2, §3

[15] = test system: MM.1R; assay: Tumor cell proliferation inhibition (CellTiter-Meiluncell Luminescent Cell Viability Assay), MM.1R; conditions: Homo sapiens, 96 h, read-out: inhibitory activity (IC50, nM) against tumor cells proliferation, MM.1R
[16] = test system: CAL-62; assay: Tumor cell proliferation inhibition (CellTiter-Meiluncell Luminescent Cell Viability Assay), CAL-62; conditions: Homo sapiens, CAL-62, 96 h, read-out: inhibitory activity (IC50, nM) against tumor cells proliferation, CAL-62
Method: as §1, §2, §3

[17] = biological target: T6, GSPT1 (Homo sapiens, UniProt P15170+Q96SW2); assay: Western-blot assay of substrate protein degradation in hPBMCs, GSPT1; format: cell-based; conditions: 24 hours of compound treatment, compounds tested at 50 nM and 500 nM (concentration of the table not stated)
T6 construct: endogenous in cells; host or cells: hPBMCs (Milecell Biotechnologies)
T6 sequence (P15170 whole entry): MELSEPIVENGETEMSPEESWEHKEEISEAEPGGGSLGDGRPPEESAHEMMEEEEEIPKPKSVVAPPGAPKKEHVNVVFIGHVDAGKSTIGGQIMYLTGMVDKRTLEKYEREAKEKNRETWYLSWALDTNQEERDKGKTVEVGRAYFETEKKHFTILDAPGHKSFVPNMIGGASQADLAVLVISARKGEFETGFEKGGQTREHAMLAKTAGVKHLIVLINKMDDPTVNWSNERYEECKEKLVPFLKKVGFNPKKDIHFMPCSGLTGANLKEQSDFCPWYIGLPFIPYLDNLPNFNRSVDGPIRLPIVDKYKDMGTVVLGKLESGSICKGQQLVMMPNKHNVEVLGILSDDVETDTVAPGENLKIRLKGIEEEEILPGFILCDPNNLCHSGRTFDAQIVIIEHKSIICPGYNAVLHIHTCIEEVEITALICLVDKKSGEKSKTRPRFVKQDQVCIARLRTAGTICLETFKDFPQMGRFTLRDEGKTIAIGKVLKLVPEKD
T6 sequence (Q96SW2 whole entry): as the sequence (Q96SW2 whole entry) above
T6 sequence (Q16531 whole entry partner): as the sequence (Q16531 whole entry partner) above

[18] = biological target: T7, human Cereblon WT GST-tagged protein (Homo sapiens, UniProt Q96SW2); assay: CRBN-binding affinity by HTRF (CEREBLON BINDING kit); conditions: HTRF inhibitory activity, CEREBLON BINDING kit; read-out: HTRF IC50
T7 construct: purchased CISBIO 64BDCRBNPEH
T7 sequence (Q96SW2 whole entry): as the sequence (Q96SW2 whole entry) above

| IC50 [3] | IC50 [4] | IC50 [5] | IC50 [7] | IC50 [10] | IC50 [11] | IC50 [12] | IC50 [13] | IC50 [14] | IC50 [15] | IC50 [16] | IC50 [18] | Structure (SMILES) | Weel substrate protein remaining % [1] | IKZF2 substrate protein remaining % [2] | IKZF3 substrate protein remaining % [6] | IKZF 1 substrate protein remaining % [8] | CK1a substrate protein remaining % [9] | GSPT1 substrate protein remaining % [17] |
| --- | --- | --- | --- | --- | --- | --- | --- | --- | --- | --- | --- | --- | --- | --- | --- | --- | --- | --- |
| 100 to 500 nM | 5 to 10 nM | 100 to 500 nM | 50 to 100 nM | 5 to 10 nM | 10 to 50 nM | 500 to 1000 nM | 100 to 500 nM | 100 to 500 nM | 10 to 50 nM | 10 to 50 nM | 1000 to 1500 nM | O=C1CCC(N2Cc3cc(CN4CCN(c5ccc(F)cc5)CC4)ccc3C2=O)C(=O)N1 (stereo not drawn) [GT-04453, 3-(5-((4-(4-fluorophenyl)piperazin-1-yl)methyl)-1-oxoisoindolin-2-yl)piperidine-2,6-dione] | A (0% ≤ substrate protein remaining % ≤ 80%) | A (0% ≤ substrate protein remaining % ≤ 80%) | A (0% ≤ substrate protein remaining % ≤ 80%) | A (0% ≤ substrate protein remaining % ≤ 80%) | A (0% ≤ substrate protein remaining % ≤ 80%) | A (0% ≤ substrate protein remaining % ≤ 80%) |
| 100 to 500 nM | 10 to 50 nM | 100 to 500 nM | 10 to 50 nM | 5 to 10 nM | 10 to 50 nM | 100 to 500 nM | 100 to 500 nM | 100 to 500 nM | 10 to 50 nM | 10 to 50 nM | 500 to 1000 nM | O=C1CCC(N2Cc3cc(CN4CCN(c5ccccc5Cl)CC4)ccc3C2=O)C(=O)N1 (stereo not drawn) [GT-04454, 3-(5-((4-(2-chlorophenyl)piperazin-1-yl)methyl)-1-oxoisoindolin-2-yl)piperidine-2,6-dione] | A (0% ≤ substrate protein remaining % ≤ 80%) | A (0% ≤ substrate protein remaining % ≤ 80%) | A (0% ≤ substrate protein remaining % ≤ 80%) | A (0% ≤ substrate protein remaining % ≤ 80%) | A (0% ≤ substrate protein remaining % ≤ 80%) | A (0% ≤ substrate protein remaining % ≤ 80%) |
| 10 to 50 nM | 1 to 5 nM | 50 to 100 nM | 10 to 50 nM | 1 to 5 nM | 1 to 5 nM | 100 to 500 nM | 50 to 100 nM | 50 to 100 nM | 5 to 10 nM | 5 to 10 nM | 500 to 1000 nM | O=C1CCC(N2Cc3cc(CN4CCN(c5ccc(Cl)cc5)CC4)ccc3C2=O)C(=O)N1 (stereo not drawn) [GT-04455, 3-(5-((4-(4-chlorophenyl)piperazin-1-yl)methyl)-1-oxoisoindolin-2-yl)piperidine-2,6-dione] | A (0% ≤ substrate protein remaining % ≤ 80%) | A (0% ≤ substrate protein remaining % ≤ 80%) | A (0% ≤ substrate protein remaining % ≤ 80%) | A (0% ≤ substrate protein remaining % ≤ 80%) | A (0% ≤ substrate protein remaining % ≤ 80%) | A (0% ≤ substrate protein remaining % ≤ 80%) |
| 100 to 500 nM | 5 to 10 nM | 100 to 500 nM | 50 to 100 nM | 5 to 10 nM | 10 to 50 nM | 500 to 1000 nM | 100 to 500 nM | 100 to 500 nM | 10 to 50 nM | 10 to 50 nM | 500 to 1000 nM | O=C1CCC(N2Cc3cc(CN4CCN(c5ccccc5Br)CC4)ccc3C2=O)C(=O)N1 (stereo not drawn) [GT-04456, 3-(5-((4-(2-bromophenyl)piperazin-1-yl)methyl)-1-oxoisoindolin-2-yl)piperidine-2,6-dione] | A (0% ≤ substrate protein remaining % ≤ 80%) | A (0% ≤ substrate protein remaining % ≤ 80%) | A (0% ≤ substrate protein remaining % ≤ 80%) | A (0% ≤ substrate protein remaining % ≤ 80%) | A (0% ≤ substrate protein remaining % ≤ 80%) | A (0% ≤ substrate protein remaining % ≤ 80%) |
| 10 to 50 nM | 1 to 5 nM | 10 to 50 nM | 5 to 10 nM | 10 to 50 nM | 1 to 5 nM | 10 to 50 nM | 10 to 50 nM | 10 to 50 nM | 1 to 5 nM | 10 to 50 nM | 500 to 1000 nM | Cc1cccc(N2CCN(Cc3ccc4c(c3)CN(C3CCC(=O)NC3=O)C4=O)CC2)c1 (stereo not drawn) [GT-04462, 3-(1-oxo-5-((4-(m-tolyl)piperazin-1-yl)methyl)isoindolin-2-yl)piperidine-2,6-dione] | A (0% ≤ substrate protein remaining % ≤ 80%) | A (0% ≤ substrate protein remaining % ≤ 80%) | A (0% ≤ substrate protein remaining % ≤ 80%) | A (0% ≤ substrate protein remaining % ≤ 80%) | A (0% ≤ substrate protein remaining % ≤ 80%) | A (0% ≤ substrate protein remaining % ≤ 80%) |
| 100 to 500 nM | 5 to 10 nM | 100 to 500 nM | 10 to 50 nM | 5 to 10 nM | 5 to 10 nM | 500 to 1000 nM | 100 to 500 nM | 100 to 500 nM | 5 to 10 nM | 10 to 50 nM | 1000 to 1500 nM | Cc1ccc(N2CCN(Cc3ccc4c(c3)CN(C3CCC(=O)NC3=O)C4=O)CC2)cc1 (stereo not drawn) [GT-04463, 3-(1-oxo-5-((4-(p-tolyl)piperazin-1-yl)methyl)isoindolin-2-yl)piperidine-2,6-dione] | A (0% ≤ substrate protein remaining % ≤ 80%) | A (0% ≤ substrate protein remaining % ≤ 80%) | A (0% ≤ substrate protein remaining % ≤ 80%) | A (0% ≤ substrate protein remaining % ≤ 80%) | A (0% ≤ substrate protein remaining % ≤ 80%) | A (0% ≤ substrate protein remaining % ≤ 80%) |
| 10 to 50 nM | 1 to 5 nM | 10 to 50 nM | 10 to 50 nM | 1 to 5 nM | 1 to 5 nM | 50 to 100 nM | 50 to 100 nM | 10 to 50 nM | 1 to 5 nM | 5 to 10 nM | 500 to 1000 nM | O=C1CCC(N2Cc3cc(CN4CCC(c5cccc(Br)c5)CC4)ccc3C2=O)C(=O)N1 (stereo not drawn) [GT-04466, 3-(5-((4-(3-bromophenyl)piperidin-1-yl)methyl)-1-oxoisoindolin-2-yl)piperidine-2,6-dione] | A (0% ≤ substrate protein remaining % ≤ 80%) | A (0% ≤ substrate protein remaining % ≤ 80%) | A (0% ≤ substrate protein remaining % ≤ 80%) | A (0% ≤ substrate protein remaining % ≤ 80%) | A (0% ≤ substrate protein remaining % ≤ 80%) | A (0% ≤ substrate protein remaining % ≤ 80%) |
